The record followed here is publication PMC6272797, “Antitrypanosomal Acetylene Fatty Acid Derivatives from the Seeds of Porcelia macrocarpa (Annonaceae)” (Molecules, 2015).

A word on the IC50: it is the concentration that gives 50% inhibition. One may read the CC50 as the concentration that lowers cell viability or growth by half.

Read-outs that look alike come from different tables or passages of the source. Where only a bound is given, the exact number is not on record here.

Data set [1] relates to T. cruzi trypomastigotes (Y strain). Description: Activity against T. cruzi trypomastigotes (MTT viability assay). The conditions noted are these: for SI (selectivity index): CC50 NCTC cells/IC50 trypomastigotes; for IC50: Trypanosoma cruzi, free trypomastigotes, read-out: IC50 T. cruzi trypomastigote; for IC50 / antitrypanosomal activity against T. cruzi trypomastigotes (in words): MTT; for antitrypanosomal activity against T. cruzi trypomastigotes (in words): in vitro. The class given is cell-based, Trypanosoma cruzi. On the procedure: T. cruzi trypomastigotes (Y strain) were maintained in LLC-MK2 (ATCC CCL 7) cells using RPMI-1640 medium supplemented with 2% FBS at 37 °C and 5% CO2-humidified incubator [34].
Free trypomastigotes obtained from LLC-MK2 cultures were counted in a Neubauer hemocytometer and seeded at 1 × 10^6/well in 96-well microplates. Tested compounds were incubated to the highest concentration of 300 μg/mL for 24 h at 37 °C in a 5% CO2 humidified incubator; using benznidazole as standard drug. The viability of the trypomastigotes was verified by the MTT assay as previously described.
The data obtained represent the mean and standard deviation of duplicate samples from three independent assays. The IC50 and CC50 values were calculated using sigmoid dose-response curves in Graph Pad Prism 5.0 software (GraphPad Software, San Diego, CA, USA), and the 95% confidence intervals are included in parentheses.
(Tetrazolium assays rely on reduction of a dye to a coloured formazan, in cell work by metabolically active cells.)

Data set [2] in a line: Cytotoxicity against mammalian cells (MTT assay). The conditions noted are these: mouse, NCTC clone 929 cells. The class given is cell-based. The procedure: The 50% cytotoxic concentration (CC50) was determined in NCTC clone 929 cells. NCTC cells were seeded at 6 × 10^4 cells/well in 96-well microplates at 37 °C in a 5% CO2. […] The viability of the cells was determined by MTT assay at 570 nm. The Selectivity Index (SI) was determined considering the following equation: CC50 NCTC cells/IC50 trypomastigotes. […] The data obtained represent the mean and standard deviation of duplicate samples from three independent assays. The IC50 and CC50 values were calculated using sigmoid dose-response curves in Graph Pad Prism 5.0 software (GraphPad Software, San Diego, CA, USA), and the 95% confidence intervals are included in parentheses.

The mark [3] stands for this setting: 24 h, 24 h, highest concentration 300 µg/mL, CI95% in parentheses.
[4] abbreviates: highest concentration 100 µg/mL, CI95% in parentheses.

`O=C(Cn1ccnc1[N+](=O)[O-])NCc1ccccc1` [Benznidazole, benznidazole, reference compound]: the “SI (selectivity index)” value in data set [1] stood at 0.9. Moreover, the 50% inhibitory concentration (IC50) in data set [1] (setting [3]) came to 139 mg/L; in data set [1] (24 h, 24 h), 534 µM. The CC50 at 48 h came to 484 µM in data set [2] and 126 mg/L in data set [2] (setting [4]).
As to `CCCC#CC#CCCCCCCCCCCC(=O)O` [Compound 1, 12,14-octadecadiynoic acid], in data set [1], the “SI (selectivity index)” value was found to be 4.1. Moreover, the IC50 in data set [1] (setting [3]) was 10.7 mg/L; in data set [1] (24 h, 24 h), 38.8 µM. Moreover, in data set [1] (at the highest tested concentration (300 µg/mL), 24 h), the “trypomastigote forms of T. cruzi killed” value worked out at 100%. In addition, the “effectiveness relative to the standard drug benznidazole” value in data set [1] (comparison of IC50 against trypomastigotes) is “approximately ten times more effective”. For the same compound, the “antitrypanosomal activity against T. cruzi trypomastigotes (in words)” value in data set [1] is listed as “displayed in vitro activity”. Besides, the results for the CC50 at 48 h in data set [2] and in data set [2] (setting [4]) were 160 µM and 44.3 mg/L, respectively.
For the compound `CCCCCCCCCCCCCCCCCC(=O)O` [Compound 1a, octadecanoic acid], the concentration for half-maximal inhibition (IC50) in data set [1] (setting [3]) is over 300 mg/L.
With `CCCC#CC#CCCCCCCCCCCC(=O)OCC(COC(=O)CCCCCCCCCCC#CC#CCCC)OC(=O)CCCCCCC/C=C\CCCCCCCC` [Compound 2, α,α'-dimacrocarpoyl-β-oleylglycerol], the half-inhibitory concentration (IC50) in data set [1] (setting [3]) is over 300 mg/L. The “antitrypanosomal activity against T. cruzi trypomastigotes (in words)” value in data set [1] is “inactive”.
Taken in the same sequence, the figures for `CCCC#CC#CCCCCCCCCCCC(=O)OCC(O)COC(=O)CCCCCCC/C=C\CCCCCCCC` (stereo not drawn) [Compound 3, α-macrocarpoyl-α'-oleylglycerol] were over 300 mg/L and “inactive”.
